According to publication PMC5201331, “Subchronic Toxicities of HZ1006, a Hydroxamate-Based Histone Deacetylase Inhibitor, in Beagle Dogs and Sprague-Dawley Rats” (International Journal of Environmental Research and Public …, 2016):

Assays:
Beagle dogs [1] = experiment: Subchronic toxicity test in Beagle dogs: clinical observation; type: in vivo; settings: for Frequencies of Diarrhea / Frequencies of Vomiting: beagle, dog, in vivo, po, 42 days
Experimental: (§1) HZ1006 was administered orally to dogs (four/sex/group) at doses of 80, 40, 20, 5 and 0 (control) mg/kg/day, and the dosage volume was 2 mL/kg. The dogs received test doses with the exact amounts on a weekly basis based on current body weights. […] The other dogs in the above groups were dissected on the planned days. For the other groups, half of the dogs were anatomized on d28 and the remaining half on d42.
(§2) Clinical symptoms and mortality were examined at least twice daily during the 42-day period, which included any changes in reaction to treatment, behavior, illness, food consumption, and body weight. Breathing rates, rectal temperature and pupil changes in the Beagle dogs were assessed once every 2 weeks.

Beagle dogs [2] = experiment: Subchronic toxicity test in Beagle dogs: overall (NOAEL, urinalysis, ECG); type: in vivo
Experimental: as §1, §2
(§3) The parameters of the dogs’ ECG included the Heart rate, Time at R, P Duration, P-R interval, T Duration, QRS Durations, Q-T Intervals and ST Segment, which were examined by an ECG6511 ECG instrument (manufactured by Shanghai Kohden Medical Electronic Instrument Corp., Shanghai, China) on d0 (twice), d14, d28 and d42 using the II limb lead method.
(§4) A Micro AUTION MA-4260 Autoanalyzer from Arkray Global Business, Inc. (kyoto, Japan), was used to analyze the animal urine samples. Parameters such as pH, specific gravity, nitrites, leukocytes, glucose, protein, urobilinogen, ketones, occult blood, bilirubin, and hemoglobin were tested.

[3] = as above; type: in vivo; settings: both sexes, beagle, dog, in vivo, daily oral administration, 28 days, read-out: NOAEL (No Observed Adverse Effect Level)
Experimental: as §1, §2, §3, §4

SD rats [4] = experiment: Subchronic toxicity test in SD rats: hematology; type: in vivo, Sprague-Dawley (SD) rats; settings: for APTT / FIB / Lym / Neu / WBC: female rats; for RET: male rats
Experimental: The rats that were judged suitable for the subchronic toxicity study were randomly divided into four groups (10 rats/sex/group). The rats received the test sample by gavage once daily for 28 days. HZ1006 was administered to the rats at doses of 120, 60, 20 and 0 (control) mg/kg, and the dosage volume was 5 mL/kg. Half of the 80 rats (half male and half female) were selected randomly according to body weight and dissected at d28. The remaining rats were dissected at […]. The following indexes were examined for the dogs used in the study, twice during the pre-dosage period and on d14, d28 and […]. The following parameters were evaluated on d28 and […] for the rats in the study: Blood samples of the animals were collected in tubes containing ethylenediamine tetraacetic acid (EDTA) and tested using an ADVIA2120 Hematology Autoanalyzer (Bayer, Leverkusen, Germany). The following indexes were examined: hemoglobin concentration (Hb), red blood cell count (RBC),mean corpuscular volume (MCV), hematocrit (HCT), mean corpuscular hemoglobin concentration (MCHC), mean corpuscular hemoglobin (MCH), white blood cell count (WBC), platelet count (Plt), WBC differential counts [neutrophilcyte (Neu), eosinophilic granulocyte (Eos), basophilic leukocyte (Bas), lymphocyte (Lym), and monocyte (Mon)] and reticulocytes (Ret). The serum coagulation times of the blood samples (1.8-mL samples were mixed with 0.2 mL sodium citrate), including prothrombin time (PT), fibrinogen (FIB), activated partial thromboplastin time (APTT), and thrombin time (TT), were tested using an MC10 plus Blood Coagulation Analyzer from Shanghai San Jose Medical Products Co., Ltd. (Shanghai, China).

[5] = Subchronic toxicity test in SD rats: overall (NOAEL, urinalysis, bone marrow, histopathology); type: in vivo, Sprague-Dawley (SD) rats; settings: both sexes, Sprague-Dawley, rat, in vivo, daily oral administration, read-out: NOAEL (No Observed Adverse Effect Level)
Experimental: (§5) The rats that were judged suitable for the subchronic toxicity study were randomly divided into four groups (10 rats/sex/group). The rats received the test sample by gavage once daily for 28 days. HZ1006 was administered to the rats at doses of 120, 60, 20 and 0 (control) mg/kg, and the dosage volume was 5 mL/kg. Half of the 80 rats (half male and half female) were selected randomly according to body weight and dissected at d28. The remaining rats were dissected at d42.
as §4
(§6) Bone marrow samples were obtained according to the methods reported previously. We classified the bone marrow cells by immersion objective. […]

SD rats [6] = experiment: as above; type: in vivo, Sprague-Dawley (SD) rats; settings: daily oral administration, 28 days
Experimental: as §5, §4, §6

[7] = 20 mg/kg oral daily, d42 (recovery)
[8] = 60 mg/kg oral daily, d42 (recovery)
[9] = 120 mg/kg oral daily, d42 (recovery)

CCCCCCCNc1cc(/C=C/C(=O)NO)ccc1OCCN(CC)CC [HZ1006]
mortality (Beagle dogs [1]; dogs, 5-80 mg/kg/day oral, ♀6 d8 and ♀8 d10 (80 mg/kg), ♀28 d16 (40 mg/kg)): Three dogs died during the study
Frequencies of Diarrhea (Beagle dogs [1]; female, 5 mg/kg/day): 0 days
Frequencies of Vomiting (Beagle dogs [1]; female, 5 mg/kg/day): 0 days
Frequencies of Diarrhea (Beagle dogs [1]; female, 20 mg/kg/day): 0 days
Frequencies of Diarrhea (Beagle dogs [1]; male, 5 mg/kg/day): 0 days
Frequencies of Vomiting (Beagle dogs [1]; male, 5 mg/kg/day): 0 days
Frequencies of Diarrhea (Beagle dogs [1]; male, 20 mg/kg/day): 0 days
ECG examination (Beagle dogs [2]; 5-80 mg/kg/day oral): no dose-related changes
urinalysis (Beagle dogs [2]; 5-80 mg/kg/day oral): no dose-related changes
minimum toxic dose (Beagle dogs [2]; daily oral administration, 28 days): 20 mg/kg
NOAEL at 28 days [3]: 5 mg/kg
APTT (SD rats [4]; 20 mg/kg oral daily, d28): 24.3 ± 3.5 s
FIB (SD rats [4]; 20 mg/kg oral daily, d28): 1.87 ± 0.09 g/L
Lym (SD rats [4]; 20 mg/kg oral daily, d28): 88.38 ± 1.68%
Neu (SD rats [4]; 20 mg/kg oral daily, d28): 8.70 ± 1.72%
WBC (SD rats [4]; 20 mg/kg oral daily, d28): 3.17 ± 1.23 ×10^9·L^−1
APTT (SD rats [4]; [7]): 22.2 ± 3.0 s
FIB (SD rats [4]; [7]): 1.62 ± 0.17 g/L
Lym (SD rats [4]; [7]): 85.40 ± 3.85%
Neu (SD rats [4]; [7]): 11.58 ± 4.04%
WBC (SD rats [4]; [7]): 2.68 ± 0.63 ×10^9·L^−1
APTT (SD rats [4]; 60 mg/kg oral daily, d28): 23.0 ± 2.4 s
FIB (SD rats [4]; 60 mg/kg oral daily, d28): 1.89 ± 0.06 g/L
Lym (SD rats [4]; 60 mg/kg oral daily, d28): 84.70 ± 5.45%
Neu (SD rats [4]; 60 mg/kg oral daily, d28): 12.08 ± 4.77%
WBC (SD rats [4]; 60 mg/kg oral daily, d28): 2.82 ± 0.60 ×10^9·L^−1
APTT (SD rats [4]; [8]): 25.2 ± 1.3 s
FIB (SD rats [4]; [8]): 1.62 ± 0.18 g/L
Lym (SD rats [4]; [8]): 85.36 ± 6.93%
Neu (SD rats [4]; [8]): 12.06 ± 6.70%
WBC (SD rats [4]; [8]): 2.53 ± 0.60 ×10^9·L^−1
APTT (SD rats [4]; 120 mg/kg oral daily, d28): 22.6 ± 2.4 s
FIB (SD rats [4]; 120 mg/kg oral daily, d28): 2.01 ± 0.40 g/L
Lym (SD rats [4]; 120 mg/kg oral daily, d28): 77.22 ± 8.78%
Neu (SD rats [4]; 120 mg/kg oral daily, d28): 19.28 ± 8.26%
WBC (SD rats [4]; 120 mg/kg oral daily, d28): 3.95 ± 0.77 ×10^9·L^−1
APTT (SD rats [4]; [9]): 25.2 ± 1.6 s
FIB (SD rats [4]; [9]): 1.85 ± 0.12 g/L
Lym (SD rats [4]; [9]): 85.88 ± 1.85%
Neu (SD rats [4]; [9]): 10.76 ± 1.81%
WBC (SD rats [4]; [9]): 3.00 ± 0.43 ×10^9·L^−1
RET (SD rats [4]; 20 mg/kg oral daily, d28): 1.88 ± 0.32%
RET (SD rats [4]; [7]): 1.92 ± 0.31%
RET (SD rats [4]; 60 mg/kg oral daily, d28): 1.43 ± 0.22%
RET (SD rats [4]; [8]): 1.82 ± 0.43%
RET (SD rats [4]; 120 mg/kg oral daily, d28): 2.04 ± 0.31 %
RET (SD rats [4]; [9]): 2.16 ± 0.22%
NOAEL at 28 days [5]: 60 mg/kg
minimum toxic dose (SD rats [6]): 120 mg/kg
